Experimental data published in patent US20090270255A1 (priority 2005, published 2009).
Like-named read-outs stand apart in the source and are kept apart here.

System: Pyricularia oryzae
Format: cell-based
[1] = single active compound, conc. 1 ppm, MTP measured at 405 nm on day 7 after inoculation, 18° C.

Compound	Observed effect (%)	Observed effect (%) [1] [%]	Observed effect (%) (single active compound, conc. 4 ppm, MTP measured at 405 nm on day 7 after inoculation, 18° C.)
bromuconazole	0	–	–
CC1(C)CC/C(=C\c2ccc(Cl)cc2)C1(O)Cn1cncn1 (stereo not shown) [Triticonazole, triticonazole]	–	3	13
Fc1ccc(C2(Cn3cncn3)OC2c2ccccc2Cl)cc1 (stereo not shown) [Epoxiconazole, epoxiconazole]	–	0	–
